biological target: human MGL from HeLa cells (Homo sapiens (Human), UniProt Q99685); assay: MGL in vitro activity assay ([glycerol-1,3-3H]-oleoyl glycerol hydrolysis, activated carbon filtration); format: biochemical; conditions: 300 nM [Glycerol-1,3-3H]-oleoyl glycerol, one hour
Procedure, shortened: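 Endogenous human MGL in HeLa cells/homogenates incubated 1 h with test compounds and 300 nM [glycerol-1,3-3H]-oleoyl glycerol. Released 3H-glycerol passing an activated carbon filter counted as activity; screening at 10 μM compound, top IC50 concentration set empirically.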

Sequence of human MGL from HeLa cells (Q99685 whole entry): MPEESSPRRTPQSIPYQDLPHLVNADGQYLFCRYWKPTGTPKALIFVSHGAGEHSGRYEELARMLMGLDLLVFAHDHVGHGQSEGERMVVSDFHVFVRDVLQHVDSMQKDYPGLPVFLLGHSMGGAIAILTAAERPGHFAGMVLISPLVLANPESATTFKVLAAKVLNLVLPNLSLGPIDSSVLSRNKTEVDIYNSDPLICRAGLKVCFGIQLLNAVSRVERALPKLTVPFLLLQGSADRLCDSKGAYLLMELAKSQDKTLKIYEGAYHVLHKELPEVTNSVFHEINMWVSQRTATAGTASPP

IC50 [nM]	SMILES
50	COc1cccc(C2CCC3(CC2)CN(C(=O)[C@H]2C[C@@](C)(O)C2)C3)c1F [Example 366, (7-(2-Fluoro-3-methoxyphenyl)-2-azaspiro[3.5]nonan-2-yl)((1s,3s)-3-hydroxy-3-methylcyclobutyl)methanone]
99	COc1cc(C2CCC3(CC2)CN(C(=O)[C@H]2C[C@@](C)(O)C2)C3)ccc1F [Example 103, (7-(4-Fluoro-3-methoxyphenyl)-2-azaspiro[3.5]nonan-2-yl)((1s,3s)-3-hydroxy-3-methylcyclobutyl)methanone]
40	COc1cccc(C2CCC3(CC2)CN(C(=O)[C@H]2C[C@@](C)(O)C2)C3)c1Cl [Example 367, (7-(2-Chloro-3-methoxyphenyl)-2-azaspiro[3.5]nonan-2-yl)((1s,3s)-3-hydroxy-3-methylcyclobutyl)methanone]
1.8	CCc1ccc(OC2CCC3(CC2)CN(C(=O)[C@H]2C[C@@](C)(O)C2)C3)nc1C(F)F [Example 439, (7-((6-(Difluoromethyl)-5-ethylpyridin-2-yl)oxy)-2-azaspiro[3.5]nonan-2-yl)((1s,3s)-3-hydroxy-3-methylcyclobutyl)methanone]
7.8	Cc1cc(C(F)(F)F)ccc1CC1CCC2(C1)CN(C(=O)[C@H]1C[C@@](C)(O)C1)C2 (mixture of isomers) [Example 203, (rac)-((1s,3s)-3-Hydroxy-3-methylcyclobutyl)(6-(2-methyl-4-(trifluoromethyl)benzyl)-2-azaspiro[3.4]octan-2-yl)methanone]
1.4	Cn1cc(C(F)(F)F)c2ccc(OC3CCC4(CC3)CN(C(=O)[C@H]3C[C@@](C)(O)C3)C4)nc21 [Example 476, ((1s,3s)-3-Hydroxy-3-methylcyclobutyl)(7-((1-methyl-3-(trifluoromethyl)-1H-pyrrolo[2,3-b]pyridin-6-yl)oxy)-2-azaspiro[3.5]nonan-2-yl)methanone]
4.3	Cc1ccc(CC2CC3(C2)CN(C(=O)[C@H]2C[C@@](C)(O)C2)C3)cc1C [Example 188, (6-(3,4-Dimethylbenzyl)-2-azaspiro[3.3]heptan-2-yl)((1s,3s)-3-hydroxy-3-methylcyclobutyl)methanone]
3.2	C[C@]1(O)C[C@@H](C(=O)N2CC3(CCC(Oc4ccc(OC(F)(F)F)cc4)CC3)C2)C1 [Example 262, ((1s,3s)-3-Hydroxy-3-methylcyclobutyl)(7-(4-(trifluoromethoxy)phenoxy)-2-azaspiro[3.5]nonan-2-yl)methanone]
24	CC(C)c1cccc(C2CC3(C2)CN(C(=O)[C@H]2C[C@@](C)(O)C2)C3)c1 [Example 3, ((1s,3s)-3-Hydroxy-3-methylcyclobutyl)(6-(3-isopropylphenyl)-2-azaspiro[3.3]heptan-2-yl)methanone]
2.8	Cc1ccc(Cl)c(OC2CCC3(CC2)CN(C(=O)[C@H]2C[C@@](C)(O)C2)C3)c1 [Example 410, (7-(2-Chloro-5-methylphenoxy)-2-azaspiro[3.5]nonan-2-yl)((1s,3s)-3-hydroxy-3-methylcyclobutyl)methanone]
31	Cc1ccc(C2CCC3(C2)CN(C(=O)[C@H]2C[C@@](C)(O)C2)C3)cc1OC(F)F (mixture of isomers) [Example 82, (rac)-(6-(3-(Difluoromethoxy)-4-methylphenyl)-2-azaspiro[3.4]octan-2-yl)((1s,3s)-3-hydroxy-3-methylcyclobutyl)methanone]
18	CC(C)(C)c1ccc(C2CCC3(CCN(C(=O)[C@H]4C[C@@](C)(O)C4)CC3)C2)cc1 (mixture of isomers) [Example 39, (rac)-(2-(4-(tert-Butyl)phenyl)-8-azaspiro[4.5]decan-8-yl)((1s,3s)-3-hydroxy-3-methylcyclobutyl)methanone]
2.2	CCc1ccc(OC2CCC3(CC2)CN(C(=O)[C@H]2C[C@@](C)(O)C2)C3)nc1OC [Example 454, (7-((5-Ethyl-6-methoxypyridin-2-yl)oxy)-2-azaspiro[3.5]nonan-2-yl)((1s,3s)-3-hydroxy-3-methylcyclobutyl)methanone]
29	C[C@]1(O)C[C@@H](C(=O)N2CC3(CCC(Oc4ccc5c(n4)CCC5)CC3)C2)C1 [Example 468, (7-((6,7-Dihydro-5H-cyclopenta[b]pyridin-2-yl)oxy)-2-azaspiro[3.5]nonan-2-yl)((1s,3s)-3-hydroxy-3-methylcyclobutyl)methanone]
1.5	Cc1c(OC(C)C)cccc1C1CCC2(CC1)CN(C(=O)[C@H]1C[C@@](C)(O)C1)C2 [Example 362, ((1s,3s)-3-Hydroxy-3-methylcyclobutyl)(7-(3-isopropoxy-2-methylphenyl)-2-azaspiro[3.5]nonan-2-yl)methanone]
37	C[C@]1(O)C[C@@H](C(=O)N2CC3(CC[C@@H](c4cccc(C5CC5)c4)C3)C2)C1 (stereo in doubt) [Example 59, ((*R)-6-(3-Cyclopropylphenyl)-2-azaspiro[3.4]octan-2-yl)((1s,3*S)-3-hydroxy-3-methylcyclobutyl)methanone]
6.4	C[C@]1(O)C[C@@H](C(=O)N2CC3(CCC(c4cccc(C5(C(F)(F)F)CC5)n4)CC3)C2)C1 [Example 371, ((1s,3s)-3-Hydroxy-3-methylcyclobutyl)(7-(6-(1-(trifluoromethyl)cyclopropyl)pyridin-2-yl)-2-azaspiro[3.5]nonan-2-yl)methanone]
6.4	Cc1cc(C)cc(C2CCC3(CC2)CN(C(=O)[C@H]2C[C@@](C)(O)C2)C3)c1 [Example 147, (7-(3,5-Dimethylphenyl)-2-azaspiro[3.5]nonan-2-yl)((1s,3s)-3-hydroxy-3-methylcyclobutyl)methanone]
16	CCc1cccc(C2CCC3(CC2)CN(C(=O)[C@H]2C[C@@](C)(O)C2)C3)c1OC [Example 144, (7-(3-Ethyl-2-methoxyphenyl)-2-azaspiro[3.5]nonan-2-yl)((1s,3s)-3-hydroxy-3-methylcyclobutyl)methanone]
37	CC(C)(C)c1ccnc(C2CCC3(CC2)CN(C(=O)[C@H]2C[C@@](C)(O)C2)C3)n1 [Example 378, (7-(4-(tert-Butyl)pyrimidin-2-yl)-2-azaspiro[3.5]nonan-2-yl)((1s,3s)-3-hydroxy-3-methylcyclobutyl)methanone]
12	Cc1ccc(C2CCC3(CC2)CN(C(=O)[C@H]2C[C@@](C)(O)C2)C3)cc1Cl [Example 22, (7-(3-Chloro-4-methylphenyl)-2-azaspiro[3.5]nonan-2-yl)((1s,3s)-3-hydroxy-3-methylcyclobutyl)methanone]
20	C[C@]1(O)C[C@@H](C(=O)N2CC3(CCC(Oc4ccc(C5CC5)cn4)CC3)C2)C1 [Example 426, (7-((5-Cyclopropylpyridin-2-yl)oxy)-2-azaspiro[3.5]nonan-2-yl)((1s,3s)-3-hydroxy-3-methylcyclobutyl)methanone]
9.1	Cc1ccc(OC2CCC3(CC2)CN(C(=O)[C@H]2C[C@@](C)(O)C2)C3)cc1Cl [Example 411, (7-(3-Chloro-4-methylphenoxy)-2-azaspiro[3.5]nonan-2-yl)((1s,3s)-3-hydroxy-3-methylcyclobutyl)methanone]

SMILES	IC50 [nM]
Cn1ccc2ccc(CC3CCC4(CC3)CN(C(=O)[C@H]3C[C@@](C)(O)C3)C4)nc21 [Example 401, ((1s,3s)-3-Hydroxy-3-methylcyclobutyl)(7-((1-methyl-1H-pyrrolo[2,3-b]pyridin-6-yl)methyl)-2-azaspiro[3.5]nonan-2-yl)methanone]	66

From patent publication US11802111B2, “Cyclobutyl amide monoacylglycerol lipase modulators” (Janssen Pharmaceutica NV, priority 2020, dated 2023)
